Experimental data from ChEMBL document CHEMBL1152223, “Analogues of 2-phenyl-ethenesulfonic acid phenyl ester have dual functions of inhibiting expression of inducible nitric oxide synthase and activating peroxisome proliferator-activated receptor gamma” (Bioorg Med Chem Lett, 2008).
pIC50: −log10 of the molar value. The source made the active and inactive calls. The calls are words filed in the database; no cut-off is given here.

Legend:
[1] = tested on: RAW264.7; assay: Suppression of LPS/IFN-gamma-stimulated NO production in mouse RAW264.7 cells; format: functional, cell-based
[2] = Cytotoxicity against mouse RAW264.7 cells; format: cell-based
[3] = target: T1, Peroxisome proliferator-activated receptor gamma (Homo sapiens, UniProt P37231); assay: Displacement of [3H]BRL49653 from PPARgamma ligand binding domain by scintillation proximity assay
T1 sequence (P37231 whole entry): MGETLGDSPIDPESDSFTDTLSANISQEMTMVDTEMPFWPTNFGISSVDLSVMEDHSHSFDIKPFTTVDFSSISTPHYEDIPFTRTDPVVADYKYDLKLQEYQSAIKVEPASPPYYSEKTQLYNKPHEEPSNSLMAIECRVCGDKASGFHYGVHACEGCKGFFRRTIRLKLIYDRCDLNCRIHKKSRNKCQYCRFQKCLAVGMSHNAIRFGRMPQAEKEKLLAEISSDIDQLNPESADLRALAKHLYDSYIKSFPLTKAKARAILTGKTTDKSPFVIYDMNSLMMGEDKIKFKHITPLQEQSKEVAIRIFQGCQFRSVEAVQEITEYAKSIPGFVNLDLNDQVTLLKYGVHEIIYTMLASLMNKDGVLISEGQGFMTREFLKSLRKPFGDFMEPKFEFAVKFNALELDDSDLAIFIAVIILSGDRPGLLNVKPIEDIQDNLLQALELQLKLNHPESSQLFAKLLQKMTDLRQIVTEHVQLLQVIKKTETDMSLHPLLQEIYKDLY

[4] = tested on: RAW264.7; assay: Suppression of LPS/IFN-gamma-stimulated NO production in mouse RAW264.7 cells at 10 uM; format: functional
[5] = tested on: RAW264.7; assay: Inhibition of iNOS expression in LPS/IFN-gamma-stimulated mouse RAW264.7 cells at 5 uM; format: functional, cell-based
[6] = tested on: RAW264.7; assay: Inhibition of iNOS expression in LPS/IFN-gamma-stimulated mouse RAW264.7 cells at 10 uM; format: functional, cell-based

Row | Compound | pIC50 [1] | GI50 [2] [µM] | pIC50 [3] | Activity [4] [%] | also measured
1 | Cc1cccc(OS(=O)(=O)/C=C/c2ccccc2)c1 | 5.46 | 62.5 | 5.93 | – | –
2 | COc1ccc(OS(=O)(=O)/C=C/c2ccccc2)cc1 | 5.13 | – | 5.89 | – | –
3 | O=S(=O)(/C=C/c1ccccc1)Oc1ccc2ccccc2c1 | 5.21 | > 80 | 5.96 | – | –
4 | O=S(=O)(CCc1ccccc1)Oc1ccc2ccccc2c1 | – | – | – | 6 | –
5 | O=S(=O)(Cc1ccccc1)Oc1ccc2ccccc2c1 | – | – | – | 7 | –
6 | O=C(O)c1cccc(OS(=O)(=O)/C=C/c2ccccc2)c1 | 4.66 | > 80 | 4.87 | – | –
7 | O=S(=O)(CCc1ccccc1)Oc1ccc(Cl)cc1 | – | – | – | 4 | –
8 | O=S(=O)(/C=C/c1ccccc1)Nc1ccccc1 | – | – | – | 4 | –
9 | O=Cc1ccc(OS(=O)(=O)/C=C/c2ccccc2)cc1 | 5.01 | > 80 | 5.68 | – | Activity [5]: Active; Activity [6]: Active
10 | O=S(=O)(/C=C/c1ccccc1)Nc1ccc(Br)cc1 | – | – | – | 5 | –
11 | COc1cccc(NS(=O)(=O)/C=C/c2ccccc2)c1 | – | – | – | 12 | –
12 | CCCCC/C=C/C=C1/C(=O)C=C[C@@H]1C/C=C\CCCC(=O)O | 5.66 | – | – | – | Activity [5]: Active; Activity [6]: Active
13 | O=S(=O)(/C=C/c1ccccc1)Oc1ccccc1 | 5.18 | > 80 | 5.88 | – | Activity [5]: Active; Activity [6]: Active
14 | O=S(=O)(/C=C/c1ccccc1)Oc1ccc(Cl)cc1 | 5.63 | 75.3 | 6.52 | – | –
15 | CN(CCOc1ccc(CC2SC(=O)NC2=O)cc1)c1ccccn1 (stereo unspecified) [ROSIGLITAZONE] | 4.76 | – | – | – | –
16 | O=S(=O)(Cc1ccccc1)Oc1ccccc1Cl | – | – | – | 0 | –
17 | Cc1cccc(OS(=O)(=O)CCc2ccccc2)c1 | – | – | – | 0 | –

Row | Compound | pIC50 [1] | GI50 [2] [µM] | pIC50 [3] | Activity [4] [%] | also measured
18 | Cc1ccc(OS(=O)(=O)/C=C/c2ccccc2)cc1 | 5.56 | > 80 | 6.39 | – | Activity [5]: Active; Activity [6]: Active
19 | O=C(O)c1cccc(NS(=O)(=O)/C=C/c2ccccc2)c1 | – | – | – | 1 | –
20 | O=C(O)c1cccc(OS(=O)(=O)CCc2ccccc2)c1 | – | – | – | 6 | –
21 | O=S(=O)(Cc1ccccc1)Oc1ccccc1 [PHENYL PHENYLMETHANESULFONATE] | – | – | – | 3 | –
22 | O=S(=O)(/C=C/c1ccccc1)Oc1cccc(Oc2ccccc2)c1 | 4.79 | > 80 | 6.42 | – | –
23 | CC(=O)Nc1ccc(OS(=O)(=O)/C=C/c2ccccc2)cc1 | 4.70 | > 80 | 4.97 | – | –
24 | CCOc1ccc(NS(=O)(=O)/C=C/c2ccccc2)cc1 | – | – | – | 0 | –
25 | O=S(=O)(CCc1ccccc1)Oc1ccccc1 | – | – | – | 2 | –
26 | CCOC(=O)c1ccc(OS(=O)(=O)/C=C/c2ccccc2)cc1 | 5.01 | > 80 | 6.13 | – | –
27 | O=C(O)c1ccc(NS(=O)(=O)/C=C/c2ccccc2)cc1 | – | – | – | 2 | –
28 | CCS(=O)(=O)Oc1cccc(Oc2ccccc2)c1 | – | – | – | 11 | –
29 | O=S(=O)(/C=C/c1ccccc1)Oc1c(Cl)cc(Cl)cc1Cl | 5.74 | > 80 | 5.84 | – | Activity [5]: Active; Activity [6]: Active
30 | O=S(=O)(CCc1ccccc1)Oc1c(Cl)cc(Cl)cc1Cl | – | – | – | 10 | –
31 | O=S(=O)(/C=C/c1ccccc1)Oc1ccc(OCc2ccccc2)cc1 | 5.03 | > 80 | 6.15 | – | Activity [5]: Active; Activity [6]: Active
32 | NS(=O)(=O)c1ccc(NS(=O)(=O)/C=C/c2ccccc2)cc1 | – | – | – | 0 | –
33 | Cc1ccc(NS(=O)(=O)/C=C/c2ccccc2)cc1 | – | – | – | 8 | –
34 | COc1ccc(NS(=O)(=O)/C=C/c2ccccc2)cc1 | – | – | – | 5 | –
